Values joined by “and” are separate entries in the source; they are usually repeats but may differ in a detail not shown here. Equal values may be shown once. Inconclusive results and toxic doses are left out. Rule as the data show it: active = T/C of 150% or more; inactive = T/C below 125%.
System: L1210 leukemia ip in BDF1 mice, survival T/C
Assay: NCI In Vivo Anticancer Drug Screen. Data for tumor model L1210 Leukemia (intraperitoneal) in B6D2F1 (BDF1) mice
Conditions: higher = longer survival
Summary of the method: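 Antitumor effect is assessed in tumor-bearing animals. Survival in the compound arm is compared with a vehicle-dosed control arm and expressed as their quotient.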

[1] = endpoint: mean survival time, dose: 50.0 mg/kg/injection, schedule: Q01DX009 (ip), vehicle: Klucel (hydroxypropylcellulose) (HPC)
[2] = endpoint: mean survival time, dose: 100.0 mg/kg/injection, schedule: Q04DX003 (ip), vehicle: Klucel (hydroxypropylcellulose) (HPC)
[3] = endpoint: mean survival time, dose: 100.0 mg/kg/injection, schedule: Q01DX009 (ip), vehicle: Klucel (hydroxypropylcellulose) (HPC)
[4] = endpoint: mean survival time, dose: 200.0 mg/kg/injection, schedule: Q01DX001 (ip), vehicle: saline
[5] = endpoint: mean survival time, dose: 200.0 mg/kg/injection, schedule: Q01DX009 (ip), vehicle: Klucel (hydroxypropylcellulose) (HPC)
[6] = endpoint: mean survival time, dose: 100.0 mg/kg/injection, schedule: Q01DX001 (ip), vehicle: saline
[7] = endpoint: mean survival time, dose: 400.0 mg/kg/injection, schedule: Q01DX001 (ip), vehicle: saline
[8] = endpoint: mean survival time, dose: 100.0 mg/kg/injection, schedule: Q04DX003 (ip), vehicle: saline with Tween-80
[9] = endpoint: mean survival time, dose: 200.0 mg/kg/injection, schedule: Q04DX003 (ip), vehicle: saline with Tween-80
[10] = endpoint: mean survival time, dose: 400.0 mg/kg/injection, schedule: Q04DX003 (ip), vehicle: saline with Tween-80
[11] = endpoint: mean survival time, dose: 100.0 mg/kg/injection, schedule: Q01DX001 (ip), vehicle: carboxymethylcellulose (CMC)
[12] = endpoint: mean survival time, dose: 200.0 mg/kg/injection, schedule: Q01DX001 (ip), vehicle: carboxymethylcellulose (CMC)
[13] = endpoint: mean survival time, dose: 400.0 mg/kg/injection, schedule: Q01DX001 (ip), vehicle: carboxymethylcellulose (CMC)
[14] = endpoint: mean survival time, dose: 200.0 mg/kg/injection, schedule: Q04DX003 (ip), vehicle: Klucel (hydroxypropylcellulose) (HPC)
[15] = endpoint: mean survival time, dose: 400.0 mg/kg/injection, schedule: Q04DX003 (ip), vehicle: Klucel (hydroxypropylcellulose) (HPC)

Measured: T/C

C1=CC23C4CCC2C2C4C4C(=C1)C3C2N1CCCCC41 (centres undefined)
inactive: endpoint: mean survival time, dose: 12.5 mg/kg/injection, schedule: Q04DX003 (ip), vehicle: Klucel (hydroxypropylcellulose) (HPC) 98 % of control | endpoint: mean survival time, dose: 25.0 mg/kg/injection, schedule: Q01DX009 (ip), vehicle: Klucel (hydroxypropylcellulose) (HPC) 105 % of control | endpoint: mean survival time, dose: 25.0 mg/kg/injection, schedule: Q04DX003 (ip), vehicle: Klucel (hydroxypropylcellulose) (HPC) 104 % of control | [1] 103 % of control | endpoint: mean survival time, dose: 50.0 mg/kg/injection, schedule: Q04DX003 (ip), vehicle: Klucel (hydroxypropylcellulose) (HPC) 96 % of control | [2] 107 % of control

O=C(O)CCCl
inactive: endpoint: mean survival time, dose: 50.0 mg/kg/injection, schedule: Q01DX001 (ip), vehicle: saline 90 % of control | [1] 98 % of control | [3] 92 % of control | endpoint: mean survival time, dose: 100.0 mg/kg/injection, schedule: Q04DX003 (ip), vehicle: saline 104 % of control | [4] 89 % of control | [5] 92 % of control | endpoint: mean survival time, dose: 200.0 mg/kg/injection, schedule: Q04DX003 (ip), vehicle: saline 98 % of control

CC1(N=C(N)CSSCC(N)=NC2(C)CCC(C(C)(C)C)CC2)CCC(C(C)(C)C)CC1 (centres undefined)
inactive: endpoint: mean survival time, dose: 0.7 mg/kg/injection, schedule: Q01DX009 (ip), vehicle: other 93 % of control and 96 % of control | endpoint: mean survival time, dose: 1.0 mg/kg/injection, schedule: Q01DX001 (ip), vehicle: other 107 % of control | endpoint: mean survival time, dose: 1.0 mg/kg/injection, schedule: Q01DX009 (ip), vehicle: other 101 % of control and 103 % of control | endpoint: mean survival time, dose: 1.56 mg/kg/injection, schedule: Q01DX009 (ip), vehicle: other 97 % of control and 101 % of control | endpoint: mean survival time, dose: 2.0 mg/kg/injection, schedule: Q01DX001 (ip), vehicle: other 105 % of control | endpoint: mean survival time, dose: 2.35 mg/kg/injection, schedule: Q01DX009 (ip), vehicle: other 105 % of control and 90 % of control | endpoint: mean survival time, dose: 3.12 mg/kg/injection, schedule: Q01DX009 (ip), vehicle: carboxymethylcellulose (CMC) 112 % of control | endpoint: mean survival time, dose: 4.0 mg/kg/injection, schedule: Q01DX001 (ip), vehicle: other 111 % of control | endpoint: mean survival time, dose: 5.0 mg/kg/injection, schedule: Q04DX003 (ip), vehicle: other 95 % of control | endpoint: mean survival time, dose: 6.25 mg/kg/injection, schedule: Q01DX009 (ip), vehicle: carboxymethylcellulose (CMC) 102 % of control | endpoint: mean survival time, dose: 6.25 mg/kg/injection, schedule: Q01DX009 (ip), vehicle: other 98 % of control | endpoint: mean survival time, dose: 10.0 mg/kg/injection, schedule: Q04DX003 (ip), vehicle: other 105 % of control | endpoint: mean survival time, dose: 12.5 mg/kg/injection, schedule: Q01DX009 (ip), vehicle: other 102 % of control | endpoint: mean survival time, dose: 12.5 mg/kg/injection, schedule: Q04DX002 (ip), vehicle: other 104 % of control and 90 % of control | endpoint: mean survival time, dose: 25.0 mg/kg/injection, schedule: Q04DX002 (ip), vehicle: carboxymethylcellulose (CMC) 102 % of control and 112 % of control

COc1ccc(C(C)=O)cc1CCCO
inactive: [6] 95 % of control | [4] 91 % of control | [7] 97 % of control

O=[N+]([O-])c1cccc(C=Nc2cccc3ccccc23)c1
inactive: [3] 96 % of control | [5] 98 % of control | endpoint: mean survival time, dose: 400.0 mg/kg/injection, schedule: Q01DX009 (ip), vehicle: Klucel (hydroxypropylcellulose) (HPC) 88 % of control

O=C1c2ccccc2C(=O)N1CNCCCNCN1C(=O)c2ccccc2C1=O
inactive: [8] 93 % of control | [9] 95 % of control | [10] 96 % of control

N#Cc1ccnc2ccccc12
inactive: [11] 97 % of control | [12] 97 % of control | [13] 98 % of control

Cc1ncc(CCO)c2c1OC(C)(C)OC2
inactive: [11] 98 % of control | [12] 110 % of control | [13] 101 % of control

Clc1onc(-c2ccccc2)c1-c1ccccc1
inactive: endpoint: mean survival time, dose: 100.0 mg/kg/injection, schedule: Q01DX009 (ip), vehicle: saline with Tween-80 101 % of control | [8] 107 % of control | endpoint: mean survival time, dose: 200.0 mg/kg/injection, schedule: Q01DX009 (ip), vehicle: saline with Tween-80 110 % of control | [9] 90 % of control | endpoint: mean survival time, dose: 400.0 mg/kg/injection, schedule: Q01DX009 (ip), vehicle: saline with Tween-80 97 % of control | [10] 91 % of control

Cc1cccc2c1C1c3ccccc3C(=O)CC1CC2=O (centres undefined)
inactive: [2] 98 % of control | [14] 97 % of control | [15] 93 % of control

S=P1(c2ccccc2)Nc2ccccc2N1c1ccccc1 (centres undefined)
inactive: endpoint: mean survival time, dose: 100.0 mg/kg/injection, schedule: Q04DX002 (ip), vehicle: DMSO 114 % of control | endpoint: mean survival time, dose: 200.0 mg/kg/injection, schedule: Q04DX002 (ip), vehicle: DMSO 86 % of control

CCCCCCC(=O)N(CCC)CCC
inactive: [11] 112 % of control | endpoint: mean survival time, dose: 100.0 mg/kg/injection, schedule: Q01DX009 (ip), vehicle: carboxymethylcellulose (CMC) 98 % of control and 100 % of control | endpoint: mean survival time, dose: 100.0 mg/kg/injection, schedule: Q04DX003 (ip), vehicle: carboxymethylcellulose (CMC) 97 % of control | [12] 102 % of control | endpoint: mean survival time, dose: 200.0 mg/kg/injection, schedule: Q01DX009 (ip), vehicle: carboxymethylcellulose (CMC) 97 % of control and 104 % of control | endpoint: mean survival time, dose: 200.0 mg/kg/injection, schedule: Q04DX003 (ip), vehicle: carboxymethylcellulose (CMC) 98 % of control

O=c1cc(NCc2ccccc2[N+](=O)[O-])[nH]c(=O)[nH]1
inactive: [6] 95 % of control | [4] 100 % of control | [7] 98 % of control

CC(=O)Nc1nc(C)c(CCCN(c2ccccc2)S(=O)(=O)c2ccc(N)cc2)c(=O)[nH]1
inactive: endpoint: mean survival time, dose: 200.0 mg/kg/injection, schedule: Q01DX001 (ip), vehicle: Klucel (hydroxypropylcellulose) (HPC) 88 % of control

c1ccc(CNc2ncnc3[nH]ncc23)cc1
inactive: endpoint: mean survival time, dose: 8.0 mg/kg/injection, schedule: Q01DX009 (ip), vehicle: saline 98 % of control | endpoint: mean survival time, dose: 16.0 mg/kg/injection, schedule: Q01DX009 (ip), vehicle: saline 103 % of control | endpoint: mean survival time, dose: 25.0 mg/kg/injection, schedule: Q01DX Z (ip), vehicle: carboxymethylcellulose (CMC) 123 % of control | endpoint: mean survival time, dose: 32.0 mg/kg/injection, schedule: Q01DX009 (ip), vehicle: saline 98 % of control | endpoint: mean survival time, dose: 50.0 mg/kg/injection, schedule: Q01DX Z (ip), vehicle: carboxymethylcellulose (CMC) 109 % of control | [4] 105 % of control | [7] 101 % of control | endpoint: mean survival time, dose: 800.0 mg/kg/injection, schedule: Q01DX001 (ip), vehicle: saline 102 % of control | endpoint: median survival time, dose: 8.0 mg/kg/injection, schedule: Q01DX009 (ip), vehicle: saline 93 % of control and 100 % of control and 118 % of control | endpoint: median survival time, dose: 16.0 mg/kg/injection, schedule: Q01DX009 (ip), vehicle: saline 100 % of control (2×) and 112 % of control | endpoint: median survival time, dose: 32.0 mg/kg/injection, schedule: Q01DX009 (ip), vehicle: saline 105 % of control and 112 % of control | endpoint: median survival time, dose: 64.0 mg/kg/injection, schedule: Q01DX009 (ip), vehicle: saline 100 % of control (2×) and 122 % of control

O=C(O)c1cc2ccccc2s1
inactive: [1] 98 % of control | [3] 101 % of control | [2] 102 % of control | [5] 95 % of control | [14] 94 % of control

COc1cc(OC)c2c(C)c(C#N)oc2c1
inactive: [2] 97 % of control | [14] 97 % of control | [15] 98 % of control

From PubChem BioAssay AID248 (DTP/NCI, 2004)
